Assay results from patent publication US10307458B2, “Peptide as absorption enhancer and composition containing same” (SOONCHUNHYANG UNIVERSITY INDUSTRY ACADEMY COOPERATION …, priority 2014, dated 2019).
Each block holds one compound with its values, some of them ahead of it. Where no end group is shown, it is not given here.

Assays:
in vivo = conditions: male, Sprague-Dawley, rat, in vivo, inhaled or intranasal, 2.5 mg/kg
Method: (§1) Male SD (Sprague-Dawley) rats (280-300 g) were provided to adapt to each separate cage of the animal facility at least 2 days. At this point, foods and water were freely allowed to the rats, which were exposed to light for 12 hours and kept in dark for another 12 hours. One day before the testing, the rats were provided with water only and kept from eating food.
(§2) The peptides of the Preparation Examples or the Example, and mannitol(^3H-Mannitol, 14.2 Ci/mmol, PerkinElmer) were used to prepare the individual preparation groups given as follows:
(§3) The first preparation group was a control group and prepared as an aqueous solution of 5% (w/v) dextrose containing mannitol without a peptide.
(§4) The second preparation group was prepared as an aqueous solution of 5% (w/v) dextrose containing mannitol and the FCIGRL peptide of the Preparation Example 1.
(§5) The third preparation group was prepared as an aqueous solution of 5% (w/v) dextrose containing mannitol and the Ac-FCIGRL peptide of the Preparation Example 2.
(§6) The fourth preparation group was prepared as an aqueous solution of 5% (w/v) dextrose containing mannitol and the FCIGRL-NH2 peptide of the Example 1.
(§7) The male SD rats provided above 1. were divided into four groups, each having five male SD rats. The first to fourth preparation groups were nasally administered into the first to fourth rat groups, respectively.
(§8) At this point, the dosage of each solution was 70 μl per rat, where the dosages of mannitol and each peptide were 20 μCi/kg and 2.5 mg/kg, respectively.
(§9) Prior to the nasal administration, each rat was anesthetized to implant a cannula into the jugular vein of it. The solution was taken into the nostrils of the rat through a micropipette (Eppendorf) with caution as not to affect the nasal mucous membrane, while the rat was lying on the back to rest its head sideways against the wall.
(§10) 250 μl of blood was collected from each rat in 10, 20, 40, 60, 120, 180, 240 and 360 minutes after administration of the solution through jugular vein cannulation. The blood was subjected to centrifugal separation at 13,000 rpm for 10 minutes to obtain 100 μl of plasma. A scintillation cocktail solution was added to the plasma. Then, an LS6500 Universal counter (Beckman Coulter, Brea, Calif., USA) was used to measure the radiation quantity for the quantitative analysis of mannitol.
(§11) The mannitol concentration in blood from the rats of each group is graphed in FIG. 1. Table 1 presents the pharmacokinetic parameters, that is, AUC, Cmax, Tmax, and T1/2 of mannitol.

nasal mucous membrane = test: Nasal administration of 3H-mannitol with or without peptide to rats; mannitol concentration in blood (mucous membrane permeability); conditions: nasal, rats, peptide 2.5 mg/kg
Method: as §1, §2, §3, §4, §5, §6, §7, §8, §9, §10, §11

[1] = preparation group containing mannitol and the peptide, for nasal administration
[2] = buffer solution that is slightly acid (pH 5.0), neutral, and basic; cited from earlier work

AUC(0-t) (in vivo): 0.101 ng·h/mL
Cmax (in vivo): 0.0306 ± 0.00602 ng/mL
Tmax (in vivo): 0.583 h
half-life (in vivo): 3.59 ± 0.0515 h
Compound: OC[C@@H](O)[C@@H](O)[C@H](O)[C@H](O)CO [Mannitol, mannitol]

Compound: Ac-FCIGRL [Ac-FCIGRL]
difference in the blood mannitol concentration versus mannitol alone (nasal mucous membrane): no significant difference

Compound: Ac-FCIGRL-NH2 [Ac-FCIGRL-NH2]
solubility of the peptide [1]: such a low solubility of the peptide as to make nasal administration of the peptide impossible

Compound: FCIGRL-NH2 [FCIGRL-NH2]
AUC0-360min of mannitol relative to the administration group of mannitol alone (nasal mucous membrane; p<0.01): 3.63 times
Cmax of mannitol relative to the administration group of mannitol alone (nasal mucous membrane; p<0.01): 2.68 times

Compound: H-FCIGRL-OH [FCIGRL, Phe-Cys-Ile-Gly-Arg-Leu]
difference in the blood mannitol concentration versus mannitol alone (nasal mucous membrane): no significant difference
maintenance of the intact form of peptide over time [2]: cannot maintain the intact form of peptide over time
